According to the NIST ThermoML archive (doi:10.1016/j.fluid.2019.112283):

Key:
[1] = 298.15 K; 101.33 kPa; Liquid; Vibrating tube method
[2] = excess molar enthalpy (molar enthalpy of mixing); xn = mol fraction of the nth substance listed; settings: 298.15 K, 101 kPa, Liquid, Flow calorimetry

CC(=O)N(C)C [N,N-dimethylethanamide]
Settings | mass density [kg/m3]
[1] | 936.14

CCCNCCC [dipropylamine] + CC(=O)N(C)C
[2]
Settings | excess molar enthalpy [kcal/mol]
x2 = 0.0597 | 0.0234
x2 = 0.0996 | 0.0397
x2 = 0.1496 | 0.0562
x2 = 0.2011 | 0.0717
x2 = 0.2497 | 0.0856
x2 = 0.3009 | 0.0954
x2 = 0.3462 | 0.104
x2 = 0.4062 | 0.114
x2 = 0.4491 | 0.118
x2 = 0.5035 | 0.123
x2 = 0.5497 | 0.124
x2 = 0.5972 | 0.122
x2 = 0.6495 | 0.118
x2 = 0.6975 | 0.113
x2 = 0.7478 | 0.104
x2 = 0.8009 | 0.092
x2 = 0.8504 | 0.076
x2 = 0.8989 | 0.0571
x2 = 0.9368 | 0.0373
x2 = 0.9507 | 0.0301

CCCCNCCCC [dibutylamine]
Settings | mass density [kg/m3]
[1] | 755.7

CCCCNCCCC [dibutylamine] + CC(=O)N(C)C
[2]
Settings | excess molar enthalpy [kcal/mol]
x2 = 0.0499 | 0.0359
x2 = 0.0976 | 0.066
x2 = 0.151 | 0.0968
x2 = 0.1969 | 0.12
x2 = 0.2472 | 0.141
x2 = 0.3002 | 0.161
x2 = 0.3526 | 0.175
x2 = 0.3983 | 0.185
x2 = 0.4472 | 0.193
x2 = 0.5007 | 0.199
x2 = 0.5507 | 0.199
x2 = 0.6007 | 0.197
x2 = 0.6477 | 0.192
x2 = 0.6968 | 0.181
x2 = 0.7481 | 0.167
x2 = 0.8004 | 0.148
x2 = 0.8512 | 0.121
x2 = 0.9019 | 0.0887
x2 = 0.9507 | 0.0485

CCCCN [1-butanamine] + CC(=O)N(C)C
[2]
Settings | excess molar enthalpy [kcal/mol]
x2 = 0.0498 | 0.0115
x2 = 0.0992 | 0.0213
x2 = 0.1518 | 0.0294
x2 = 0.1985 | 0.0363
x2 = 0.2512 | 0.0394
x2 = 0.3004 | 0.0452
x2 = 0.3493 | 0.0483
x2 = 0.4015 | 0.0495
x2 = 0.4508 | 0.05
x2 = 0.5005 | 0.0497
x2 = 0.5509 | 0.048
x2 = 0.6005 | 0.0466
x2 = 0.7008 | 0.0382
x2 = 0.7995 | 0.0287
x2 = 0.8502 | 0.0225
x2 = 0.9002 | 0.0153
x2 = 0.9594 | 0.00645

CCCCCCN [1-hexanamine] + CN(C)C=O
[2]
Settings | excess molar enthalpy [kcal/mol]
x2 = 0.0514 | 0.0282
x2 = 0.1007 | 0.0523
x2 = 0.1516 | 0.076
x2 = 0.2009 | 0.0942
x2 = 0.2522 | 0.11
x2 = 0.3006 | 0.127
x2 = 0.3519 | 0.14
x2 = 0.4007 | 0.148
x2 = 0.4518 | 0.155
x2 = 0.5003 | 0.158
x2 = 0.5505 | 0.158
x2 = 0.5982 | 0.155
x2 = 0.6507 | 0.147
x2 = 0.7002 | 0.136
x2 = 0.7503 | 0.122
x2 = 0.8005 | 0.105
x2 = 0.8506 | 0.0846
x2 = 0.8995 | 0.0588
x2 = 0.9502 | 0.0308

CCCNCCC [dipropylamine]
Settings | mass density [kg/m3]
[1] | 733.37

CN(C)C=O [dimethylformamide]
Settings | mass density [kg/m3]
[1] | 943.78

CCCCCCN [1-hexanamine]
Settings | mass density [kg/m3]
[1] | 760.16

CCCNCCC [dipropylamine] + CN(C)C=O
[2]
Settings | excess molar enthalpy [kcal/mol]
x2 = 0.0358 | 0.021
x2 = 0.1002 | 0.0576
x2 = 0.1512 | 0.0839
x2 = 0.1984 | 0.107
x2 = 0.2504 | 0.126
x2 = 0.3016 | 0.142
x2 = 0.3483 | 0.157
x2 = 0.4005 | 0.166
x2 = 0.4495 | 0.176
x2 = 0.5005 | 0.179
x2 = 0.5505 | 0.18
x2 = 0.6012 | 0.178
x2 = 0.6587 | 0.169
x2 = 0.6997 | 0.161
x2 = 0.7518 | 0.147
x2 = 0.7983 | 0.13
x2 = 0.8485 | 0.105
x2 = 0.8991 | 0.076
x2 = 0.9504 | 0.0406

CCCCN [1-butanamine]
Settings | mass density [kg/m3]
[1] | 732.18

CCCCNCCCC [dibutylamine] + CN(C)C=O
[2]
Settings | excess molar enthalpy [kcal/mol]
x2 = 0.0491 | 0.0449
x2 = 0.1014 | 0.0923
x2 = 0.1488 | 0.13
x2 = 0.2006 | 0.163
x2 = 0.2482 | 0.187
x2 = 0.3006 | 0.21
x2 = 0.351 | 0.228
x2 = 0.4021 | 0.247
x2 = 0.4497 | 0.259
x2 = 0.4982 | 0.266
x2 = 0.5505 | 0.267
x2 = 0.599 | 0.262
x2 = 0.65 | 0.253
x2 = 0.6997 | 0.239
x2 = 0.7506 | 0.22
x2 = 0.7994 | 0.195
x2 = 0.8503 | 0.16
x2 = 0.9 | 0.117
x2 = 0.9501 | 0.0645

CCCCCCN [1-hexanamine] + CC(=O)N(C)C
[2]
Settings | excess molar enthalpy [kcal/mol]
x2 = 0.0509 | 0.017
x2 = 0.1005 | 0.0337
x2 = 0.1507 | 0.0468
x2 = 0.1994 | 0.0583
x2 = 0.2488 | 0.0705
x2 = 0.3018 | 0.0808
x2 = 0.3484 | 0.0882
x2 = 0.398 | 0.0961
x2 = 0.4502 | 0.1
x2 = 0.5006 | 0.101
x2 = 0.5493 | 0.101
x2 = 0.6002 | 0.0994
x2 = 0.6492 | 0.0958
x2 = 0.7001 | 0.0896
x2 = 0.7491 | 0.0815
x2 = 0.7996 | 0.0707
x2 = 0.8513 | 0.0569
x2 = 0.9008 | 0.0409
x2 = 0.9503 | 0.0217

CCCCN [1-butanamine] + CN(C)C=O
[2]
Settings | excess molar enthalpy [kcal/mol]
x2 = 0.051 | 0.0213
x2 = 0.1009 | 0.0397
x2 = 0.1496 | 0.054
x2 = 0.1703 | 0.059
x2 = 0.2005 | 0.0667
x2 = 0.2498 | 0.0765
x2 = 0.3007 | 0.0841
x2 = 0.3496 | 0.0891
x2 = 0.4008 | 0.0935
x2 = 0.4508 | 0.0939
x2 = 0.5008 | 0.0918
x2 = 0.5463 | 0.0894
x2 = 0.6008 | 0.0848
x2 = 0.6463 | 0.0779
x2 = 0.7011 | 0.0691
x2 = 0.7559 | 0.0586
x2 = 0.8005 | 0.0497
x2 = 0.8495 | 0.0378
x2 = 0.9003 | 0.0253
x2 = 0.9519 | 0.0131
